Patent US11459586B2, “Methods for increasing efficiency of nuclease-mediated gene editing in stem cells” (President and Fellows of Harvard College, priority 2016, dated 2022)

Tested on: human iPSC
Test: Jak2 V617F single base pair editing in hiPSC, HR and NHEJ by MiSeq
Format: cell-based
Source text: FIGS. 6A-C. Bcl-2 overexpression increases the efficiency of engineering single base pair changes using ssODN donors in human iPSC. FIG. 6A. A sgRNA was designed to target exon 14 of human JAK2. The V617F mutation was encoded within 110 bp ssODN donors (in either the plus or minus orientation) or a plasmid containing 1.9 kb and 1.3 kb flanking homology arms. Small triangles indicate the primer sites for the genotyping PCR reaction outside the ssODN sequence. Plain human iPSC were transfected with 2 μg “Cas9 only sgRNA” or “Cas9 Bcl-2 sgRNA” expression plasmid and/or 10 μM ssODN or 2 μg V617F plasmid donor. 17 days later, cells were harvested for genomic DNA purification. The genomic region around exon 14 was PCR amplified and analyzed by MiSeq. FIG. 6B. […] The percent of MiSeq reads containing the Jak2 V617F mutation (HR) or indel mutations (NHEJ) is indicated together with a plot of bp position along the PCR product versus the number of sequencing reads. […]
A second round of nested PCR with PCR index primers sold under the trademark NEXTERA™ index primers (IIlumina) was used to add barcodes and remaining adaptor sequences. Both PCR reactions were supplemented with fluorescent dye sold under the trademark SYBR® Green (Invitrogen) and monitored on a quantitative PCR machine to prevent over-amplification. […]

Bcl-2: B cell lymphoma 2 protein, anti-apoptotic, overexpressed from lentivirus or Cas9 plasmid
increase of absolute recombination frequency (HR) (oligo (ssODN) donors, Bcl-2 on the Cas9 plasmid): 2-4 fold | absolute recombination frequency (HR) (plasmid donor, Bcl-2 on the Cas9 plasmid (from 25% without)): 39%
